Values quoted from earlier work in patent publication US10201537B2 (INFLAMMATORY RESPONSE RESEARCH, INC., priority 2013, dated 2019).
Read-outs that look alike come from different tables or passages of the source.

Assays:
[1] = tested on: humans
[2] = tested on: histamine induced wheal and flare; conditions: levocetirizine 5 mg per day vs fexofenadine 180 mg per day
[3] = tested on: eosinophil migration
[4] = tested on: IL-4, IL-6, and IL-8
[5] = in vivo
[6] = tested on: adult patients
[7] = for time to steady state level: montelukast, oral
[8] = warfarin, theophylline, digoxin, terfenadine, oral contraceptives, prednisone
[9] = tested on: influenza; conditions: human, in vivo
[10] = tested on: granulocyte and macrophage proliferation; conditions: in vivo

## O=C(O)COCCN1CCN([C@H](c2ccccc2)c2ccc(Cl)cc2)CC1 [Levocetirizine]
[1]; higher doses
  principal side effect at higher doses: Sedation
[1]; in vivo
  doses safely administered in humans: up to 30 mg/day
[2]
  effectiveness versus fexofenadine: more effective than fexofenadine
[3]
  eosinophil migration: decrease eosinophil migration
[4]
  inflammatory mediators IL-4, IL-6, and IL-8: decrease inflammatory mediators
[5]
  time to steady state level: 40 h

## CC(C)(O)c1ccccc1CC[C@@H](SCC1(CC(=O)O)CC1)c1cccc(/C=C/c2ccc3ccc(Cl)cc3n2)c1 [Montelukast]
[6]; adult patients, 22 weeks
  doses without clinically important adverse experiences: up to 200 mg/day
[6]; short-term studies, approximately one week
  doses without clinically important adverse experiences: up to 900 mg/day
[7]; IV montelukast 7 mg vs 10 mg oral tablet
  plasma concentration area under the curve profile: comparable to the approved 10 mg oral montelukast tablet
[7]; in vivo
  absorption: rapidly absorbed
  linear pharmacokinetics to dose: ≤ 50 mg
  time to peak plasma concentration: 3 to 4 h
[7]
  time to steady state level: less than two days
[7]; listed as montelukast
  time to steady state level: within two days
[7]; standard meal
  effect of a standard meal on oral bioavailability and Cmax: not affected by a standard meal
[8]
  drug interactions: no drug interactions

## CCOC(=O)C1=C[C@@H](OC(CC)CC)[C@H](NC(C)=O)[C@@H](N)C1 [oseltamivir]
[9]
  influenza related lower respiratory tract complications: did not appear to reduce influenza related lower respiratory tract complications

B1: filgrastim (protein, chains of the INN, looked up)
chain: MTPLGPASSLPQSFLLKCLEQVRKIQGDGAALQEKLCATYKLCHPEELVLLGHSLGIPWAPLSSCPSQALQLAGCLSQLHSGLFLYQGLLQALEGISPELGPTLDTLQLDVADFATTIWQQMEELGMAPALQPTQGAMPAFASAFQRRAGGVLVASHLQSFLEVSYRVLRHLAQP
modifications: N-terminal methionine, non-glycosylated
notes: protein stimulating granulocyte and macrophage proliferation and differentiation
[10]
  serious reactions: splenic rupture, ARDS, thrombocytopenia, cutaneous vasculitis, and hemorrhage
